In patent US11155557B2, “Pyrazolopyrimidine compounds and methods of use thereof” (Genentech, Inc., priority 2016, dated 2021):

Assays:
[1] = target: isolated recombinant JAK1 kinase domain (Homo sapiens (Human), UniProt P23458); assay: JAK1 enzyme assay (Caliper LabChip, Ki); format: biochemical
Procedure: The activity of the isolated recombinant JAK1 and JAK2 kinase domain was measured by monitoring phosphorylation of a peptide derived from JAK3 ([…] fluorescently labeled on the N-terminus with 5-carboxyfluorescein) using the Caliper LabChip R technology (Caliper Life Sciences, Hopkinton, Mass.).

[2] = system: JAK1-dependent STAT6 phosphorylation in BEAS-2B human bronchial epithelial cells; assay: JAK1 pathway assay: IL-13 stimulated STAT6 phosphorylation in BEAS-2B cells; format: cell-based; settings: Homo sapiens, BEAS-2B, BEAS-2B cells, IL-13 stimulation; read-out: IL-13 p-STAT6 BEAS-2B IC50
Outline: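 BEAS-2B bronchial epithelial cells plated one day before, run in complete growth medium. Phospho-STAT6 in lysates measured by MesoScale Discovery; EC50 reported.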

[3] = target: isolated recombinant JAK2 kinase domain (Homo sapiens (Human), UniProt O60674); assay: JAK2 enzyme assay (Caliper LabChip, Ki); settings: read-out: JAK2 Ki
isolated recombinant JAK2 kinase domain, sequence (O60674 849-1124): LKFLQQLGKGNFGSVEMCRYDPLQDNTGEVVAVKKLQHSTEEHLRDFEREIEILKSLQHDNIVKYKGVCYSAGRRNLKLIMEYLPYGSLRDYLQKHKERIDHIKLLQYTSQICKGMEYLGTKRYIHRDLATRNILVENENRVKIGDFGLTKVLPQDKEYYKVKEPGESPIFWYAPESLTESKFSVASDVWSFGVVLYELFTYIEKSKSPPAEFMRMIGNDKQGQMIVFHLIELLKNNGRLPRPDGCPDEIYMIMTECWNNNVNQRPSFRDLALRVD
Procedure: JAK Enzyme Assays were Carried Out as Follows:
The activity of the isolated recombinant JAK1 and JAK2 kinase domain was measured by monitoring phosphorylation of a peptide derived from JAK3 ([sequence] fluorescently labeled on the N-terminus with 5-carboxyfluorescein) using the Caliper LabChip R technology (Caliper Life Sciences, Hopkinton, Mass.). […] After termination of the kinase reaction, the proportion of phosphorylated product was determined as a fraction of total peptide substrate using the Caliper LabChip R 3000 according to the manufacturer's specifications.

isolated recombinant JAK1 kinase domain, sequence (P23458 875-1153): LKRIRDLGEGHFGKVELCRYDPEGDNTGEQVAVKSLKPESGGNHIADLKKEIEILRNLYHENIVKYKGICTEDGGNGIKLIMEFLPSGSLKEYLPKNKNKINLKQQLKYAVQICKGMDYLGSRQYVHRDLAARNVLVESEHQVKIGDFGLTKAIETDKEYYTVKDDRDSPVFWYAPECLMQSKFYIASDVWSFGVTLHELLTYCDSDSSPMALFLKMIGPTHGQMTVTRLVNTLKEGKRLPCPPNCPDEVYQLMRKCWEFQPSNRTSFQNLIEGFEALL

CN(C)C(=O)Cn1cc(NC(=O)c2cnn3cccnc23)c(-c2cc3cnsc3cc2OC(F)F)n1 [Example 143, N-[3-[6-(difluoromethoxy)-1,2-benzothiazol-5-yl]-1-[2-(dimethylamino)-2-oxo-ethyl]pyrazol-4-yl]pyrazolo[1,5-a]pyrimidine-3-carboxamide]
Ki [1]: 220 pM
IC50 [2]: 13000 pM
Ki [3]: 970 pM

N#CCn1cc(NC(=O)c2cnn3cccnc23)c(-c2cc3c(cc2OC(F)F)NCCO3)n1 [Example 144, N-[1-(cyanomethyl)-3-[6-(difluoromethoxy)-3,4-dihydro-2H-1,4-benzoxazin-7-yl]pyrazol-4-yl]pyrazolo[1,5-a]pyrimidine-3-carboxamide]
Ki [1]: 140 pM
IC50 [2]: 7000 pM
Ki [3]: 110 pM

Cn1cc(NC(=O)c2cnn3cccnc23)c(-c2cc3c(cc2OC(F)F)NC2(COC2)CO3)n1 [Example 147, N-(3-(6-(difluoromethoxy)-2,4-dihydrospiro[benzo[b][1,4]oxazine-3,3′-oxetan]-7-yl)-1-methyl-1H-pyrazol-4-yl)pyrazolo[1,5-a]pyrimidine-3-carboxamide]
Ki [1]: 340 pM
IC50 [2]: 14000 pM
Ki [3]: 320 pM

C[C@H]1CNc2cc(OC(F)F)c(-c3n[nH]cc3NC(=O)c3cnn4cccnc34)cc2O1 [Example 148, (S)—N-(3-(6-(difluoromethoxy)-2-methyl-3,4-dihydro-2H-benzo[b][1,4]oxazin-7-yl)-1H-pyrazol-4-yl)pyrazolo[1,5-a]pyrimidine-3-carboxamide]
Ki [1]: 510 pM
IC50 [2]: 55000 pM
Ki [3]: 170 pM

Cn1cc(NC(=O)c2cnn3cccnc23)c(-c2cc3c(cc2OC(F)F)NCC(C)(C)O3)n1 [Example 149, N-(3-(6-(difluoromethoxy)-2,2-dimethyl-3,4-dihydro-2H-benzo[b][1,4]oxazin-7-yl)-1-methyl-1H-pyrazol-4-yl)pyrazolo[1,5-a]pyrimidine-3-carboxamide]
Ki [1]: 1330 pM
IC50 [2]: 43000 pM
Ki [3]: 640 pM

O=C(Nc1c[nH]nc1-c1cc2c(cc1OC(F)F)OCCO2)c1cnn2cccnc12 [Example 150, N-(3-(7-(difluoromethoxy)-2,3-dihydrobenzo[b][1,4]dioxin-6-yl)-1H-pyrazol-4-yl)pyrazolo[1,5-a]pyrimidine-3-carboxamide]
Ki [1]: 1650 pM
IC50 [2]: 61000 pM
Ki [3]: 610 pM

O=C(Nc1c[nH]nc1-c1cc2c(cc1OC(F)F)SCCO2)c1cnn2cccnc12 [Example 151, N-(3-(6-(difluoromethoxy)-2,3-dihydrobenzo[b][1,4]oxathiin-7-yl)-1H-pyrazol-4-yl)pyrazolo[1,5-a]pyrimidine-3-carboxamide]
Ki [1]: 770 pM
IC50 [2]: 30000 pM
Ki [3]: 250 pM

O=C(Nc1c[nH]nc1-c1cc2sncc2cc1OC(F)F)c1cnn2cccnc12 [Example 152, N-(3-(5-(difluoromethoxy)benzo[d]isothiazol-6-yl)-1H-pyrazol-4-yl)pyrazolo[1,5-a]pyrimidine-3-carboxamide]
Ki [1]: 100 pM
IC50 [2]: 4000 pM
Ki [3]: 60 pM

O=C(Nc1c[nH]nc1-c1cc2cnsc2cc1OC(F)F)c1cnn2cccnc12 [Example 153, N-(3-(6-(difluoromethoxy)benzo[d]isothiazol-5-yl)-1H-pyrazol-4-yl)pyrazolo[1,5-a]pyrimidine-3-carboxamide]
Ki [1]: 150 pM
IC50 [2]: 5000 pM
Ki [3]: 80 pM

CC(C)OC(=O)n1cc(NC(=O)c2cnn3cccnc23)c(-c2cc3c(cc2OC(F)F)NCCO3)n1 [Example 154, Propan-2-yl 3-[6-(difluoromethoxy)-3,4-dihydro-2H-1,4-benzoxazin-7-yl]-4-[pyrazolo[1,5-a]pyrimidine-3-amido]-1H-pyrazole-1-carboxylate]
Ki [1]: 400 pM
IC50 [2]: 22000 pM
Ki [3]: 380 pM
